From PubChem BioAssay AID540271 (Broad Institute, 2011) come the findings set out here.

The experiment deals with S. cerevisiae expressing PfHSP40, growth rescue, plate reader. The experiment can be described thus: Yeast growth rescue from Plasmodium falciparum HSP40 toxicity, dose response confirmatory, plate reader (AID 540271).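 Further: yeast growth read after three days of incubation at 30 °C.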
In general, AC50 refers to the midpoint of the concentration-response curve, whichever way the signal moves. Consider `Cc1nc2c(o1)C(=O)c1ccccc1C2=Nc1ccccc1`, for which the AC50 was 5.02 µM.

In the case of `Cc1nnc(N=c2ssnc2Cl)o1`, the AC50 is 3.22 µM.

As for `CCC(Oc1ccccc1)C(=O)Nc1ncc([N+](=O)[O-])s1` (configuration not stated), the AC50 is 6.83 µM.

In the case of `O=C1c2ccccc2-n2c1nc1ccccc1c2=O`, the AC50 is 1.83 µM.

With `COc1ccc(O)c(C(=O)CC(=O)c2ccc(F)cc2)c1`, the AC50 was 0.977 µM.

For `Cn1ccc(=Nc2ccc(NC(=O)c3ccc(N=c4ccn(C)c5ccc([N+](=O)[O-])cc45)cc3)cc2)cc1`, the AC50 was 6.48 µM.

Consider `O=C(COc1ccccc1F)Nc1nc(-c2ccccn2)cs1`, for which the AC50 is 5.52 µM.
